Results published in patent publication US20160297761A1, “NOVEL INHIBITORS OF GLUTAMINASE” (RHIZEN PHARMACEUTICALS SA, priority 2014, published 2016).
Read-outs that look alike come from different tables or passages of the source.

Columns and labels:
[1] = target: T1, L-glutaminase present in mice brain homogenate (Glutaminase(Brain)) (Mus musculus, UniProt D3Z7P3); experiment: Glutaminase enzyme activity using glutaminase enzyme from mice brain/kidney homogenate (Nessler's reagent, ammonia); assay type: biochemical; conditions: for inhibition at 0.1 µM: read-out: Glutaminase(Brain) activity % inhibition 0.1 μM; for inhibition at 1 µM: read-out: Glutaminase(Brain) activity % inhibition @1 μM
T1 sequence (D3Z7P3 55-674): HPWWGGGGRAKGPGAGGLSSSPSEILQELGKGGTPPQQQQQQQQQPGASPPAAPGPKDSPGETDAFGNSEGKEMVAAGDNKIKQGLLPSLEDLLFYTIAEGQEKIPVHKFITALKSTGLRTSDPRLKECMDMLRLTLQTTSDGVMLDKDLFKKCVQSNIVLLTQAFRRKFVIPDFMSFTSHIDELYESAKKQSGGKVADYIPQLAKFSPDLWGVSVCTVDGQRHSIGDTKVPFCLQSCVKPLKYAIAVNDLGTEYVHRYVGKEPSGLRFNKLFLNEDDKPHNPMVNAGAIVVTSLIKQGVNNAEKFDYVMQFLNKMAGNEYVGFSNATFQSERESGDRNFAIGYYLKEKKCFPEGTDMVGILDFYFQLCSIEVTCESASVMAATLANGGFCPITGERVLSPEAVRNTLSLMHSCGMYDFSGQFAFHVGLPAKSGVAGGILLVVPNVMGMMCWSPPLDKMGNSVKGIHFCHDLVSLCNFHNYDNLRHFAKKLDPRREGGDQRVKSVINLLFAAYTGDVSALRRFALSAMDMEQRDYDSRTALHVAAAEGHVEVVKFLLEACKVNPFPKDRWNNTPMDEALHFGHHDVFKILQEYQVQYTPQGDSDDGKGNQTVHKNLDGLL
Method: Assay 3: Determination of Glutaminase Enzyme Activity Using Glutaminase
Enzyme from Mice Brain/Kidney
Step 1: Preparation of Tissue Homogenates: Male Balb/c mice were administered 0.28 M ammonium chloride in drinking water for 7 days. The animals were sacrificed and brain/kidney organs collected on dry ice. […] The tissue was homogenized and supernatants were stored at −80° C. until the enzyme assay was performed.
Aim: Compounds were assessed for their ability to inhibit the enzymatic activity of L-glutaminase present in mice brain/kidney homogenate.
Protocol: The assay was performed using a colorimetric method using Nessler's Reagent by quantifying the amount of ammonia formed as a by product during the enzymatic conversion of L-glutamine to glutamate. In the routine assay, 16 μl of tissue homogenate is added to 33 μl of Tris-Hcl phosphate buffer (pH 8) along with 1 μl of DMSO/test compound containing the desired final concentration and vortexed briefly. 50 μl of 20 mM L-glutamine Tris buffer is added to start the reaction and incubated for 15 minutes at 37° C. The ammonia formed is detected by adding 20 μl of reaction mixture to cold water in a 96 well plate followed by 20 μl of Nessler's reagent. The colour developed is measured at 450 nm. Data Analysis: Activity of the test compound is reported as % inhibition and the data is analyzed using Graphpad Prism (Graphpad software; San Diego Calif.) for IC50 determination.

cancer cell lines = experiment: In vitro cell proliferation assay in cancer cell lines (MTT dye reduction, 72 h); assay type: cell-based; conditions: cancer cell line not named, 10% FBS media
Method: Assay 4: In Vitro Cell Proliferation Assay in Cancer Cell Lines
Growth inhibition assays were carried out using 10% FBS supplemented media. Cells were seeded at a concentration of 5000-20,000 cells/well in a 96-well plate. Test compounds at a concentration range from 0.01 to 10000 nM were added after 24 hours. Growth was assessed using the 3-[4,5-dimethylthiazol-2-yl]-2,5-diphenyltetrazolium bromide (MIT) dye reduction test at 0 h (prior to the addition of the test compound) and 72 hours after the addition of test compound. Absorbance was read on a Fluostar Optima (BMG Labtech, Germany) at a wave length of 450 nm. Data were analysed using GraphPad Prism and percent inhibition due to the test compound compared to the control was calculated accordingly.

Row | SMILES | inhibition at 0.1 µM ([1]; 0.1 μM, mice brain homogenate) | inhibition at 1 µM ([1]; 1 μM, mice brain homogenate) | GI50 (cancer cell lines) | melting point | inhibition at 0.1 µM [1] | inhibition at 1 µM [1]
1 | CS(=O)(=O)Nc1cccc(CC(=O)Nc2nnc(CCCCc3ccc(NC(=O)Cc4cccc(OC(F)(F)F)c4)nc3)s2)c1 [Example-30, 2-(3-(Methylsulfonamido)phenyl)-N-(5-(4-(6-(2-(3-(trifluoromethoxy)phenyl)acetamido)pyridin-3-yl)butyl)-1,3,4-thiadiazol-2-yl)acetamide] | 50 to 75% | 75 to 100% | 1000 to 5000 nM |  |  | 
2 | O=C(Cc1ccccn1)Nc1ccc(CCCCc2nnc(NC(=O)Cc3cccc(OC(F)(F)F)c3)s2)c(F)n1 [Example-32, N-(6-fluoro-5-(4-(5-(2-(3-(trifluoromethoxy)phenyl)acetamido)-1,3,4-thiadiazol-2-yl)butyl)pyridin-2-yl)-2-(pyridin-2-yl)acetamide] | < 25% | 75 to 100% | 400 to 1000 nM |  |  | 
3 | O=C(Cc1cccnc1)Nc1ccc(CCCCc2nnc(NC(=O)Cc3cccc(F)c3)s2)cn1 [Example-20, 2-(3-Fluorophenyl)-N-(5-(4-(6-(2-(pyridin-3-yl)acetamido)pyridin-3-yl)butyl)-1,3,4-thiadiazol-2-yl)acetamide] | 75 to 100% | 75 to 100% | 400 to 1000 nM |  |  | 
4 | CCC(Cl)C(=O)Nc1nnc(CCCCc2ccc(NC(=O)Cc3cccc(OC(F)(F)F)c3)nc2)s1 (stereo not shown) [Example-24, 2-Chloro-N-(5-(4-(6-(2-(3-(trifluoromethoxy)phenyl)acetamido)pyridin-3-yl)butyl)-1,3,4-thiadiazol-2-yl)butanamide] | < 25% | < 25% | 400 to 1000 nM |  |  | 
5 | O=C(Cc1ccccc1)Nc1nnc(C2CCC(c3nnc(NC(=O)Cc4ccccc4)s3)CC2)s1 (stereo not shown) [Example-101, N,N′-(5, 5′-(cyclohexane-1,4-diyl)bis(1,3,4-thiadiazole-5,2-diyl))bis(2-phenylacetamide)] |  |  |  | 281 to 283 °C |  | 
6 | O=C(Cc1cccc(OC(F)(F)F)c1)Nc1ccc(CCCCc2nnc(NC(=O)Cc3cnccn3)s2)cn1 [Example-28, 2-(Pyrazin-2-yl)-N-(5-(4-(6-(2-(3-(trifluoromethoxy)phenyl)acetamido)pyridin-3-yl)butyl)-1,3,4-thiadiazol-2-yl)acetamide] | 75 to 100% | 50 to 75% | 1000 to 5000 nM |  |  | 
7 | O=C(Cc1cccc(OC(F)(F)F)c1)Nc1ccc(CCCCc2nnc(NC(=O)Cc3ccccn3)s2)c(F)n1 [Example-29, N-(6-fluoro-5-(4-(5-(2-(pyridin-2-yl)acetamido)-1,3,4-thiadiazol-2-yl)butyl)pyridin-2-yl)-2-(3-(trifluoromethoxy)phenyl)acetamide] | 50 to 75% | 75 to 100% | 1000 to 5000 nM |  |  | 
8 | O=C(Cc1cccc(OC(F)(F)F)c1)Nc1ccc(CCCCc2nnc(NC(=O)Cc3ccccn3)s2)cn1 [Example 3, 2-(Pyridin-2-yl)-N-(5-(4-(6-(2-(3-(trifluoromethoxy)phenyl)acetamido)pyridin-3-yl)butyl)-1,3,4-thiadiazol-2-yl)acetamide] |  |  | 400 to 1000 nM |  | 50 to 75% | 75 to 100%
9 | CS(=O)(=O)Nc1ccc(CC(=O)Nc2nnc(CCCCc3ccc(NC(=O)Cc4cccc(OC(F)(F)F)c4)nc3)s2)cc1 [Example-31, 2-(4-(Methylsulfonamido)phenyl)-N-(5-(4-(6-(2-(3-(trifluoromethoxy)phenyl)acetamido)pyridin-3-yl)butyl)-1,3,4-thiadiazol-2-yl)acetamide] | 50 to 75% | 75 to 100% | 5000 to 10000 nM |  |  | 
10 | O=C(Cc1cccc(OC(F)(F)F)c1)Nc1ccc(CC2CC(c3nnc(NC(=O)Cc4ccccn4)s3)C2)cn1 (stereo not shown) [Example-107, 2-(Pyridin-2-yl)-N-(5-(3-((6-(2-(3-(trifluoromethoxy)phenyl)acetamido)pyridin-3-yl)methyl)cyclobutyl)-1,3,4-thiadiazol-2-yl)acetamide] | 25 to 50% | 50 to 75% | 400 to 1000 nM |  |  | 

Results, then the compound that gave them:

Row | inhibition at 0.1 µM ([1]; 0.1 μM, mice brain homogenate) | inhibition at 1 µM ([1]; 1 μM, mice brain homogenate) | GI50 (cancer cell lines) | melting point | inhibition at 0.1 µM [1] | inhibition at 1 µM [1] | SMILES
11 | 75 to 100% | 75 to 100% | < 100 nM |  |  |  | O=C(Cc1cccnc1)Nc1ccc(CCCCc2nnc(NC(=O)Cc3cccc(OC(F)(F)F)c3)s2)cn1 [Example-11, 2-(Pyridin-3-yl)-N-(5-(4-(5-(2-(3-(trifluoromethoxy)phenyl)acetamido)-1,3,4-thiadiazol-2-yl)butyl)pyridin-2-yl)acetamide]
12 | 50 to 75% | 75 to 100% | 100 to 400 nM |  |  |  | O=C(Cc1cccnc1)Nc1ccc(CCCCc2nnc(NC(=O)Cc3cccc(Cl)c3)s2)cn1 [Example-18, 2-(3-Chlorophenyl)-N-(5-(4-(6-(2-(pyridin-3-yl)acetamido)pyridin-3-yl)butyl)-1,3,4-thiadiazol-2-yl)acetamide]
13 | 75 to 100% | 75 to 100% | 100 to 400 nM |  |  |  | O=C(Cc1cccc(OC(F)(F)F)c1)Nc1ccc(CC2CC(c3nnc(NC(=O)Cc4cccnc4)s3)C2)cn1 (stereo not shown) [Example-108, 2-(Pyridin-3-yl)-N-(5-(3-((6-(2-(3-(trifluoromethoxy)phenyl)acetamido)pyridin-3-yl)methyl)cyclobutyl)-1,3,4-thiadiazol-2-yl)acetamide]
14 | 50 to 75% | 75 to 100% | < 100 nM |  |  |  | O=C(Cc1cccc(OC(F)(F)F)c1)Nc1ccc(CCCCc2nnc(NC(=O)Cc3cccnc3)s2)c(F)n1 [Example-21, N-(6-Fluoro-5-(4-(5-(2-(pyridin-3-yl)acetamido)-1,3,4-thiadiazol-2-yl)butyl)pyridin-2-yl)-2-(3-(trifluoromethoxy)phenyl)acetamide]
15 | 25 to 50% | 50 to 75% | < 100 nM |  |  |  | O=C(Cc1cccc(OC(F)(F)F)c1)Nc1ccc(CCCCc2nnc(NC(=O)Cc3cccc(OC(F)(F)F)c3)s2)cn1 [Example-16, 2-(3-(Trifluoromethoxy)phenyl)-N-(5-(4-(5-(2-(3-(trifluoromethoxy)phenyl)acetamido)-1,3,4-thiadiazol-2-yl)butyl)pyridin-2-yl)acetamide]
16 | 25 to 50% | 75 to 100% | < 100 nM |  |  |  | O=C(Cc1ccccn1)Nc1ccc(CCCCc2nnc(NC(=O)Cc3cccnc3)s2)c(F)n1 [Example-38, N-(6-fluoro-5-(4-(5-(2-(pyridin-3-yl)acetamido)-1,3,4-thiadiazol-2-yl)butyl)pyridin-2-yl)-2-(pyridin-2-yl)acetamide]
17 | 25 to 50% | 75 to 100% | 100 to 400 nM |  |  |  | N#Cc1cccc(CC(=O)Nc2nnc(CCCCc3ccc(NC(=O)Cc4cccc(OC(F)(F)F)c4)nc3)s2)c1 [Example-17, 2-(3-Cyanophenyl)-N-(5-(4-(6-(2-(3-(trifluoromethoxy)phenyl)acetamido)pyridin-3-yl)butyl)-1,3,4-thiadiazol-2-yl)acetamide]
18 | 50 to 75% | 75 to 100% | < 100 nM |  |  |  | O=C(Cc1cccnc1)Nc1ccc(CC2CC(c3nnc(NC(=O)Cc4cccc(OC(F)(F)F)c4)s3)C2)cn1 (stereo not shown) [Example-109, 2-(Pyridin-3-yl)-N-(5-((3-(5-(2-(3-(trifluoromethoxy)phenyl)acetamido)-1,3,4-thiadiazol-2-yl)cyclobutyl)methyl)pyridin-2-yl)acetamide]
